Measured values as given in ChEMBL document CHEMBL2034881, “Inverse Virtual Screening allows the discovery of the biological activity of natural compounds” (Bioorg Med Chem, 2012).

How the values were obtained:
[1] = molecular target: T1, 3-phosphoinositide-dependent protein kinase 1 (Homo sapiens, UniProt O15530); assay: Inhibition of human PDK1 assessed as inhibition of [33P] incorporation into substrate after 60 mins by scintillation counting
T1 sequence (O15530 whole entry): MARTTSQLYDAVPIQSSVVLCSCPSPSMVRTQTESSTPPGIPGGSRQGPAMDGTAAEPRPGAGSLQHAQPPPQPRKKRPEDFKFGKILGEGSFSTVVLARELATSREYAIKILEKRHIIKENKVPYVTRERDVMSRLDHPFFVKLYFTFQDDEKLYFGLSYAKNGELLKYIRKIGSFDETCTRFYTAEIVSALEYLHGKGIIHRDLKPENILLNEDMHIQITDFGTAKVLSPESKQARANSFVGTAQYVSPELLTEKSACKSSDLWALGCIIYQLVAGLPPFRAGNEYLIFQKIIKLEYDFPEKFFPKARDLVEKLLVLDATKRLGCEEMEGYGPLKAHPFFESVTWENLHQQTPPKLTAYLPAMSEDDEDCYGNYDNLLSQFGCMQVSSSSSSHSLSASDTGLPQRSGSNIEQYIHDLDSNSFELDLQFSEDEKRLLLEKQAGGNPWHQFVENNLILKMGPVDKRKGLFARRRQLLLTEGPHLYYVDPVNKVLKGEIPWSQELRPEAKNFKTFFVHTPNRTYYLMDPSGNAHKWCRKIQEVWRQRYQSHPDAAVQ

[2] = molecular target: Protein kinase C alpha type (Homo sapiens, UniProt P17252); assay: Inhibition of human PKC alpha assessed as inhibition of [33P] incorporation into substrate after 60 mins by scintillation counting
[3] = molecular target: Protein kinase C theta type (Homo sapiens, UniProt Q04759); assay: Inhibition of human PKC theta assessed as inhibition of [33P] incorporation into substrate after 60 mins by scintillation counting
Protein kinase C theta type, sequence (Q04759 whole entry): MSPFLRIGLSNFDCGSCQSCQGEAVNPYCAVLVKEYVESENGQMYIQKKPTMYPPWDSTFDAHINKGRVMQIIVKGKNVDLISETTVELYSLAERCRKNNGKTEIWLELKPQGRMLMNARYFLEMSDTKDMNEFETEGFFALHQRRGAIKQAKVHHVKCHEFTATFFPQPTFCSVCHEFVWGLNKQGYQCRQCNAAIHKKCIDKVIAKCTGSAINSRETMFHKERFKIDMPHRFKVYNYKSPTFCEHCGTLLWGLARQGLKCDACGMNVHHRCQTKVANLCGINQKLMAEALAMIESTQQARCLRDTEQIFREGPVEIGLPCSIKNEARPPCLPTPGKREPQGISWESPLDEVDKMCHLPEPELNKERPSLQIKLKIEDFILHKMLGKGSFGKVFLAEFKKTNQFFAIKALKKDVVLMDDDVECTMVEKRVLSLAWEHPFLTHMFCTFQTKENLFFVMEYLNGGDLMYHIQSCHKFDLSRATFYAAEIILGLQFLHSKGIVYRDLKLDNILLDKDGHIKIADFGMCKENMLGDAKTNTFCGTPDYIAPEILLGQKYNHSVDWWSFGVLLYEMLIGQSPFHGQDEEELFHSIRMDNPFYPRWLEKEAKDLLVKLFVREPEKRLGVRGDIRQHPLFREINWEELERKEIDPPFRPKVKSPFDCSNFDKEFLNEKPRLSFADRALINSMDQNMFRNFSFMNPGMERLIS

Row | IC50 [1] [µM] | IC50 [2] [µM] | IC50 [3] [µM] | Structure (SMILES)
1 | 6.6 | > 100 | > 100 | COc1cc(O)c(CC=C(C)C)c(O)c1C(=O)/C=C/c1ccc(O)cc1 [XANTHOHUMOL]
2 | 58.7 | 45.3 | 31.6 | COc1cc(O)c(CC=C(C)C)c2c1C(=O)CC(c1ccc(O)cc1)O2 (stereo unspecified) [ISOXANTHOHUMOL]
